According to US20210147466A1, “IMPROVED PROCESSES FOR THE PREPARATION OF GUADECITABINE AND INTERMEDIATES THEREOF” (TEVA CZECH INDUSTRIES s.r.o., priority 2017, published 2021):
Like-named read-outs stand apart in the source and are kept apart here.

Experiments:
[1] = undergoes hydrolytic degradation; cited from earlier work
[2] = format: physicochemical
Procedure: Analytical HPLC Method Used for Measuring Guadecitabine Purity
Column: 150×3.0 mm Luna Omega Polar C18, 1.6 μm at 40° C.
Solvent A: 0.15 mL/l formic acid in water, pH adjusted with ammonia to 3.6. Solvent B: acetonitrile Gradient program: […]
Example 23: Comparison of Guadecitabine Sodium Form A Stability in Water at 25° C. and Methanol Water (9/1 v/v) at 40° C.
In water stability of guadecitabine sodium form A was measured as follows.
Instrument method: autosampler temp. was set to 25° C. 10 mg of guadecitabine sodium form A was weighted in 2-mL vial in glovebox and 1 mL of water was added to have concentration exactly 10 mg/mL. Sample was injected freshly after preparation (0 min), 20 min after preparation (20 min) and afterwards every 40 min (duration of single analysis run).

[3] = Stability of guadecitabine sodium form A in methanol water (9/1 v/v) at 40° C. (HPLC contents); format: physicochemical
Procedure: Analytical HPLC Method Used for Measuring Guadecitabine Purity Column: 150×3.0 mm Luna Omega Polar C18, 1.6 μm at 40° C. Solvent A: 0.15 mL/l formic acid in water, pH adjusted with ammonia to 3.6. Solvent B: acetonitrile Gradient program: [table] [table] Example 23: Comparison of Guadecitabine Sodium Form A Stability in Water at 25° C. and Methanol Water (9/1 v/v) at 40° C.

[4] = Stability in aqueous media (statements in the description); format: physicochemical; conditions: aqueous phase of chromatography on C18 column

Nc1ncn([C@H]2C[C@H](O)[C@@H](CO)O2)c(=O)n1 [Decitabine]
stability in aqueous media [1]: unstable

Nc1ncn([C@H]2C[C@H](OP(=O)([O-])OC[C@H]3O[C@@H](n4cnc5c(=O)[nH]c(N)nc54)C[C@@H]3O)[C@@H](CO)O2)c(=O)n1.[Na+] [guadecitabine sodium]
HPLC contents (%) Degradant 2a [2]: <0.05%
HPLC contents (%) Degradant 2b [2]: <0.05%
HPLC contents (%) Degradant 2c [2]: 0.14%
HPLC contents (%) Degradant 2d [2]: 0.05%
HPLC contents (%) guadecitabine sodium ([2]; Solution in DMSO, no time point (reference)): 99.82%
HPLC contents (%) guadecitabine sodium ([2]; Solution in water, 10 mg/mL, 25° C., injection time point 0 min): 99.80%
HPLC contents (%) guadecitabine sodium ([2]; Solution in water, 10 mg/mL, 25° C., injection time point 20 min): 99.63%
HPLC contents (%) guadecitabine sodium ([2]; Solution in water, 10 mg/mL, 25° C., injection time point 40 min): 99.39%
HPLC contents (%) guadecitabine sodium ([2]; Solution in water, 10 mg/mL, 25° C., injection time point 80 min): 99.02%
HPLC contents (%) guadecitabine sodium ([2]; Solution in water, 10 mg/mL, 25° C., injection time point 120 min): 98.58%
HPLC contents (%) guadecitabine sodium ([2]; Solution in water, 10 mg/mL, 25° C., injection time point 160 min): 98.16%
HPLC contents (%) guadecitabine sodium ([2]; Solution in water, 10 mg/mL, 25° C., injection time point 200 min): 97.56%
HPLC contents (%) guadecitabine sodium ([2]; Solution in water, 10 mg/mL, 25° C., injection time point 240 min): 97.11%
HPLC contents (%) guadecitabine sodium ([2]; Solution in water, 10 mg/mL, 25° C., injection time point 280 min): 96.29%
HPLC contents (%) Degradant 2a [3]: <0.05%
HPLC contents (%) Degradant 2b [3]: <0.05%
HPLC contents (%) Degradant 2c [3]: 0.14%
HPLC contents (%) Degradant 2d [3]: 0.10%
HPLC contents (%) guadecitabine sodium ([3]; Suspension in methanol/water (9/1), 40° C., injection time point 240 min): 99.76%

Nc1ncn([C@H]2C[C@H](OP(=O)(O)OC[C@H]3O[C@@H](n4cnc5c(=O)[nH]c(N)nc54)C[C@@H]3O)[C@@H](CO)O2)c(=O)n1 [guadecitabine, [(2R,3S,5R)-5-(2-amino-6-oxo-3H-purin-9-yl)-3-hydroxyoxolan-2-yl]methyl [(2R,3S,5R)-5-(4-amino-2-oxo-1,3,5-triazin-1-yl)-2-(hydroxymethyl)oxolan-3-yl] hydrogen phosphate]
stability in aqueous phase [4]: not stable
guadecitabine degradation ([3]; in methanol): significantly suppressed
